Source: patent publication US4470926A, “Medicaments containing thymosin alpha 1 fragments and having an immunostimulant action, and fragments of thymosin alpha 1” (priority 1980, dated 1984)
Like-named read-outs stand apart in the source and are kept apart here. Residues, ends and D or L forms follow the SMILES beside them. No end group written: not given here.

What was measured:
[1] = tested on: human peripheral lymphocytes; format: cell-based; conditions: for stimulation (+) / inhibition (-) (%) of the mixed lymphocyte culture: 1 μg fragment per ml; for (%) Stimulation of allogenic mixed culture: 1 microgram thymosin α1 per ml
Procedure: The test in mixed lymphocyte cultures is based on the fact that T-cells are made to proliferate by stimulation with allogenic antigens. For the performance of the test, the lymphocytes of donor A ("responder") are incubated with those of donor B ("stimulator") for 4 to 5 days. Then ^3 H-thymidin is added and the rate of proliferation is measured on the basis of the increasing radioactivity of the cell culture due to the installation of the radioactive material. Since both populations A and B might be made to proliferate, resulting in an unclear effect, population B is blocked with mitomycin C in all metabolical activities. This test is routinely used before organ transplants to determine the immunological compatibility of donor and receiver tissues.

[2] = tested on: human peripheral lymphocytes; format: cell-based; conditions: for Optimum concentr.: concentration of optimum E-rosette stimulation after α-amanitin block; for Relative number of the E-rosettes (%): after inhibition with α-amanitin
Text: The immunological test methods used were the E-rosette test according to Wara, Ammann et al. (N.Y. Acad. Sci. 249 (1975) 308 and N. Engl. J. Med. 292 (1975) 70) and the method of mixed lymphocyte culture, both methods involving additional inhibition of cellular RNS polymerase by alpha-amanitin. The E-rosette test is based on the fact that the percentage of E-rosette forming cells in peripheral human blood is a measure of the content of fully mature T-cells, which form with sheep's red blood cells characteristic aggregates which can be counted under the microscope.
For the performance of the E-rosette test, peripheral human lymphocytes are isolated by a gradient centrifugation. Their RNS polymerase is blocked by alpha-amanitin. […] This value is taken as 100% in a relative numerical scale, and after the alpha-amanitin blockage it is taken to be 0%; see Table XII.

[3] = cell pair AB, culture blocked with 1 μg α-amanitin per ml
[4] = cell pair AB, not blocked with amanitin, culture without addition = 0%
[5] = cell pair BA, not blocked with amanitin, culture without addition = 0%
[6] = cell pair CD, culture blocked with 1 μg α-amanitin per ml
[7] = cell pair CD, not blocked with amanitin, culture without addition = 0%
[8] = cell pair DC, culture blocked with 1 μg α-amanitin per ml
[9] = cell pair DC, not blocked with amanitin, culture without addition = 0%
[10] = after α-amanitin block (=0%), normal level without any addition = 100%, at optimum concentration
[11] = cell pair BA, culture blocked with 1 μg α-amanitin per ml

Molecule | action in the mixed lymphocyte culture (in words) [1] | stimulation (+) / inhibition (-) (%) of the mixed lymphocyte culture [1, 3] | stimulation (+) / inhibition (-) (%) of the mixed lymphocyte culture [1, 4] | stimulation (+) / inhibition (-) (%) of the mixed lymphocyte culture [1, 6] | stimulation (+) / inhibition (-) (%) of the mixed lymphocyte culture [1, 7] | stimulation (+) / inhibition (-) (%) of the mixed lymphocyte culture [1, 8] | stimulation (+) / inhibition (-) (%) of the mixed lymphocyte culture [1, 9] | activity in the E-rosette test (in words) [2] | E-rosette number (%) [2, 10] | Optimum concentr. [2] | stimulation (+) / inhibition (-) (%) of the mixed lymphocyte culture [1, 11] | other results
KDAAVD [Ia] | surprisingly pronounced inhibiting action | -10% | -8% | -53% | -73% | -7% | -31% | especially active | 93% | 16 µM |  | stimulation (+) / inhibition (-) (%) of the mixed lymphocyte culture [1, 5]: -15%
Synthetic thymosin α1: parent substance, totally synthetic thymosin α1, 28 amino acids, analytically pure (SDAAVDTSSEITTKDLKEKKEVVEEAEN; ends and bridges not checked; UniProt P06454 2-29, looked up) [reference compound] |  |  |  |  |  |  |  |  | 100% | 1.6 µM |  | (%) Stimulation of allogenic mixed culture ([1]; cell pair AB, (a) culture not inhibited, without addition = 0%): +20%; (%) Stimulation of allogenic mixed culture ([1]; cell pair AB, (b) culture inhibited with 1 microgram amanitin per ml): +86%; (%) Stimulation of allogenic mixed culture ([1]; cell pair AD, (a) culture not inhibited): +4%; (%) Stimulation of allogenic mixed culture ([1]; cell pair AD, (b) culture inhibited with 1 microgram amanitin per ml): +37%; (%) Stimulation of allogenic mixed culture ([1]; cell pair BA, (a) culture not inhibited): +27%; (%) Stimulation of allogenic mixed culture ([1]; cell pair BA, (b) culture inhibited with 1 microgram amanitin per ml): +47%; (%) Stimulation of allogenic mixed culture ([1]; cell pair BD, (a) culture not inhibited): +45%; (%) Stimulation of allogenic mixed culture ([1]; cell pair BD, (b) culture inhibited with 1 microgram amanitin per ml): +51%; (%) Stimulation of allogenic mixed culture ([1]; cell pair DA, (a) culture not inhibited): +44%; (%) Stimulation of allogenic mixed culture ([1]; cell pair DB, (a) culture not inhibited): +27%; (%) Stimulation of allogenic mixed culture ([1]; cell pair DB, (b) culture inhibited with 1 microgram amanitin per ml): +1550%; Relative number of the E-rosettes (%) ([2]; 0.25 μg per culture): 39%; Relative number of the E-rosettes (%) ([2]; 0.50 μg per culture): 100%; Relative number of the E-rosettes (%) ([2]; 1.00 μg per culture): 64%; Relative number of the E-rosettes (%) ([2]; 2.50 μg per culture): 57%; Relative number of the E-rosettes (%) ([2]; 5.00 μg per culture): 33%
KEVVEEAEN [VI] |  | +279% | +153% | +83% | +57% | +160% |  |  | 16% | 10 µM | -96% | 
TKDLKEKKEVVEEAEN [VII] |  |  |  |  |  |  |  | more strongly stimulated |  | 6 µM |  | E-rosette number (%) [2]: 41%
KEVVE [IV] | very considerable stimulation of T-cell proliferation | -87% | -53% | +35% | +37% | +100% | +2% | activity in the E-rosette test only at a relatively high dosage | 45% | 83 µM | -97% | 
Ac-SDAAVDTSSEIT [IX] | surprisingly pronounced inhibiting action | -30% | -74% | +63% | -63% | +60% | -77% | more strongly stimulated | 40% | 4 µM | -78% | 
C[C@H](NC(=O)[C@@H](N)CCC(=O)O)C(=O)N[C@@H](CCC(=O)O)C(=O)N[C@@H](CC(N)=O)C(=O)O [V] (H-EAEN-OH) | very considerable stimulation of T-cell proliferation | -47% | +223% |  | +45% |  | +37% | activity in the E-rosette test only at a relatively high dosage | 42% | 113 µM | -94% | 
TSSEIT [II] |  | -11% |  | -98% | -53% | +20% | +30% |  | 29% | 80 µM | -80% | stimulation (+) / inhibition (-) (%) of the mixed lymphocyte culture [1, 5]: -18%
